The values below come from ChEMBL document CHEMBL3758126, “Synthesis of 4-sulfamoylphenyl-benzylamine derivatives with inhibitory activity against human carbonic anhydrase isoforms I, II, IX and XII” (Bioorg Med Chem, 2016).

SMILES strings stand for the structures.

Targets include Carbonic anhydrase 12 (Homo sapiens, UniProt O43570); Carbonic anhydrase 1 (Homo sapiens, UniProt P00915); Carbonic anhydrase 9 (Homo sapiens, UniProt Q16790).

Sequence of Carbonic anhydrase 1 (P00915 whole entry): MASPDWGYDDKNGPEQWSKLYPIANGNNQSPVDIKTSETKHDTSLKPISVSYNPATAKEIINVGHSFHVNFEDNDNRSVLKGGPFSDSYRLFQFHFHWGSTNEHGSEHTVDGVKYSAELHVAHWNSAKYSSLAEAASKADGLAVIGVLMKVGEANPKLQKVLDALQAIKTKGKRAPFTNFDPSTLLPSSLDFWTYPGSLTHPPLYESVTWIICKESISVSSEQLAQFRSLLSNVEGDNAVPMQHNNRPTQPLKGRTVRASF
Sequence of Carbonic anhydrase 12 (O43570 whole entry): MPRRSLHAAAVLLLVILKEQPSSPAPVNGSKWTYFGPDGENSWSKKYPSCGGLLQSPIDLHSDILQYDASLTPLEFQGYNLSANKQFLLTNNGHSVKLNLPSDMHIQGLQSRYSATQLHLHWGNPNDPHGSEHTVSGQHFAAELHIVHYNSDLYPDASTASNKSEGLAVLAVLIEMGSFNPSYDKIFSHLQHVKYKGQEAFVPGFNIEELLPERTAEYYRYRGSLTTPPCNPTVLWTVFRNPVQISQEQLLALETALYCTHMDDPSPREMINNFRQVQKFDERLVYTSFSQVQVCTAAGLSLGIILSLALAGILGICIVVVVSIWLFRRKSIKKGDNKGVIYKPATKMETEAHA
Description for Carbonic anhydrase 12: Inhibition of human recombinant carbonic anhydrase 12 preincubated for 15 mins by stopped-flow CO2 hydrase assay
Description for Carbonic anhydrase 9: Inhibition of human recombinant carbonic anhydrase 9 preincubated for 15 mins by stopped-flow CO2 hydrase assay

In general, Ki refers to the dissociation constant of the complex between target and ligand, obtained from inhibition or displacement. High values mean a looser hold on the target, low ones a stronger hold on the target. Regarding `COc1ccc(CNc2ccc(S(N)(=O)=O)cc2)cc1`, the Ki at Carbonic anhydrase 12 is 0.427 µM; on Carbonic anhydrase 1 it was 0.0219 µM; at Carbonic anhydrase 9 it was 0.0022 µM.
In turn, `NS(=O)(=O)c1ccc(NCc2cc(Cl)ccc2O)cc1` displayed an inhibition constant (Ki) on Carbonic anhydrase 9 of 0.0024 µM.
On to `CN(C)c1ccc(/C=N/c2ccc(S(N)(=O)=O)cc2)cc1`, for which the inhibition constant Ki was determined as 0.0088 µM on Carbonic anhydrase 12, 0.421 µM at Carbonic anhydrase 1 and 0.0415 µM at Carbonic anhydrase 9.
Turning to `COc1ccc(/C=N/c2ccc(S(N)(=O)=O)cc2)cc1`, the Ki on Carbonic anhydrase 12 was 0.0112 µM; at Carbonic anhydrase 1 it was over 50 µM; at Carbonic anhydrase 9 it was 0.883 µM.
Compound `Cc1ccc(CNc2ccc(S(N)(=O)=O)cc2)cc1` yielded a Ki on Carbonic anhydrase 9 of 0.0021 µM.
On the same count and under the same terms, as for `Cc1cccc(/C=N/c2ccc(S(N)(=O)=O)cc2)c1O`, the figure is 0.465 µM; as for `Cc1cccc(CNc2ccc(S(N)(=O)=O)cc2)c1O`, 0.0023 µM; as for `NS(=O)(=O)c1ccc(NCc2cc(Cl)cc(Cl)c2O)cc1`, 0.0022 µM.
On the same count and under the same terms, under `NS(=O)(=O)c1ccc(NCc2ccccc2O)cc1` stands 0.0029 µM; under `NS(=O)(=O)c1ccc(/N=C/c2cc(Cl)cc(Cl)c2O)cc1`, 0.0356 µM.
On to `NS(=O)(=O)c1ccc(/N=C/c2ccc(OCc3ccccc3)cc2)cc1`, for which the Ki at Carbonic anhydrase 1 is over 50 µM; on Carbonic anhydrase 9, 0.036 µM.
Consider `NS(=O)(=O)c1ccc(/N=C/c2cc(Br)ccc2O)cc1`, for which the inhibitory constant (Ki) on Carbonic anhydrase 9 turned out to be 0.257 µM.
With `NS(=O)(=O)c1ccc(/N=C/c2cc(Br)cc(Br)c2O)cc1`, the Ki at Carbonic anhydrase 1 is over 50 µM; on Carbonic anhydrase 9, 0.36 µM.
Compound `NS(=O)(=O)c1ccc(NCc2ccc(OCc3ccccc3)cc2)cc1` displayed a Ki at Carbonic anhydrase 9 of 0.0025 µM.
The same measure, in the same setting: under `NS(=O)(=O)c1ccc(NCc2cc(Br)cc(Br)c2O)cc1` stands 0.0023 µM.
In the case of `NS(=O)(=O)c1ccc(/N=C/c2cc(Cl)ccc2O)cc1`, the Ki on Carbonic anhydrase 1 is over 50 µM; at Carbonic anhydrase 9 it was 0.0479 µM.
On to `CN(C)c1ccc(CNc2ccc(S(N)(=O)=O)cc2)cc1`, for which the Ki at Carbonic anhydrase 12 is over 50 µM; at Carbonic anhydrase 9 it was 0.0024 µM.
On to `NS(=O)(=O)c1ccc(/N=C/c2ccccc2O)cc1`, for which the Ki on Carbonic anhydrase 9 was 0.952 µM.
In the case of `NS(=O)(=O)c1ccc(/N=C/c2ccccc2)cc1`, the Ki at Carbonic anhydrase 12 was 0.0111 µM; on Carbonic anhydrase 1 it was over 50 µM; on Carbonic anhydrase 9 it was 0.454 µM.
For the compound `Cc1ccc(/C=N/c2ccc(S(N)(=O)=O)cc2)cc1`, the Ki at Carbonic anhydrase 12 is 0.0099 µM; at Carbonic anhydrase 1, over 50 µM.
